From US6699894B1, “Methods for treatment of inflammatory bowel disease” (OSI Pharmaceuticals, Inc., priority 2001, dated 2004)
Where a name gives a salt, the structure may show the parent alone. Read-outs that look alike come from different tables or passages of the source.

Columns and labels:
[1] = target: T1, GST-cGB-PDE5 fusion protein (Homo sapiens, UniProt O76074); test: cGMP binding assay with GST-cGB-PDE5 fusion protein; conditions: for competition with cGMP binding at high concentration: test substance 100 μM vs cGMP 2 μM
T1 construct: made in house; host or cells: E. coli BL21 (DE3)
Method: 5′-3′, Inc. kits for total RNA followed by oligo (dT) column purification of mRNA are used with HT-29 cells. […] It is then cloned into pGEX-5X-3 glutathione-S-transferase (GST) fusion vector (Pharmacia Biotech) with tac promoter, and EcoRI and XhoI cut sites. The fusion vector is then transfected into E. Coli BL21 (DE3) bacteria (Invitrogen). The transfected BL21 bacteria is grown to log phase, and then IPTG is added as an inducer. The induction is carried at 20° C. for 24 hrs. The bacteria are harvested and lysed. The soluble cell lysate is incubated with GSH conjugated Sepharose 4B (GSH-Sepharose 4B). The GST-cGB-PDE5 fusion protein can bind to the GSH-Sepharose beads, and the other proteins are washed off from beads with excessive cold PBS.
Then, the mixture is transferred to Brandel MB-24 cell harvester with GF/B as the filter membrane followed by 2 washes with 10 mL of cold 5 mM potassium buffer(pH 6.8). The membranes are then cut out and transferred to scintillation vials followed by the addition of 1 mL of H2O and 6 mL of Ready Safe™ liquid scintillation cocktail to each vial. The vials are counted on a Beckman LS 6500 scintillation counter.
The quenching by filter membrane or other debris are also calibrated.

[2] = target: native bovine PDE5 (Bos taurus, UniProt Q28156); conditions: read-out: Kd of cGMP binding to native bovine PDE5; cited from earlier work
[3] = tested on: PDE1; test: PDE inhibition: PDE1; assay type: biochemical; conditions: similar protocols
[4] = tested on: PDE4; test: PDE inhibition: PDE4; assay type: biochemical; conditions: similar protocols
[5] = target: PDE 5 (Homo sapiens, UniProt O76074); test: Competitive binding (with cGMP) to PDE5
[6] = tested on: rats; test: Acute toxicity study in rats; conditions: rat, in vivo
[7] = tested on: dogs; test: Acute and seven-dose toxicity in dogs (capsules); conditions: dog, in vivo
Method: Therefore, these dogs were subsequently administered seven consecutive doses of 1000 mg/kg/day.

[8] = tested on: rats; test: Seven-day dose-range finding study in rats; assay type: in vivo; conditions: 7 days
[9] = tested on: rats; test: 28-day study in rats; assay type: in vivo
Method: A 28-day study in rats was also carried out at 0, 50, 500 and 2000 mg/kg/day.

[10] = tested on: rats; test: 91-day long-term safety assessment study in rats; assay type: in vivo
Description: These changes were not associated with any gross clinical abnormality.

[11] = tested on: dogs; test: 91-day oral study in dogs; assay type: in vivo
[12] = tested on: patients; test: Single, escalating dose human clinical safety trial; assay type: in vivo; conditions: oral, 50 mg BID, 100 mg BID, 200 mg BID and 400 mg BID
[13] = tested on: dogs with IBD; test: Efficacy trial in dogs with IBD; assay type: in vivo
Description: IBD in humans is quite similar to IBD in dogs. […] In fact, the IBD treatments used in dogs are very similar to those used in humans, and the success rates are similarly disappointing. The number of dogs with IBD is estimated to be in the millions in the U.S. Feline IBD is also quite common.
The pre-drug history and results achieved with the drug in each dog are as follows: […]

[14] = 28 days, 50, 500 and 2000 mg/kg/day
[15] = 91 days, highest dose group (300 mg/kg/day)

O=c1[nH]cnc2c1ncn2[C@@H]1O[C@@H]2COP(=O)(O)O[C@H]2[C@H]1O [Cyclic IMP]
competition with cGMP binding at high concentration [1]: can partially compete

O=C([O-])C1CCN(c2nc(NCc3ccc4c(c3)OCO4)c3cc(Cl)ccc3n2)CC1.[Na+] [Example E4021]
competition with cGMP in binding of GST-cGB-PDE5 ([1]; 3H-cGMP 2 μM, 22° C., 1 hour): None of the PDE5 inhibitors showed any competition with cGMP

Nc1nc2c(ncn2[C@@H]2O[C@@H]3COP(=O)(O)O[C@H]3[C@H]2O)c(=O)[nH]1 [cGMP, cyclic 3′,5′-guanosine monophosphate]
binding to the cGMP binding sites of GST-cGB-PDE5 / PDE5 [1]: specifically bound | Kd ([1]; read-out: Kd of cGMP binding to GST-cGB-PDE5, two cGMP binding sites): 1.6 ± 0.2 µM | Kd [2]: 1.3 µM

Nc1ncnc2c1ncn2[C@@H]1O[C@@H]2COP(=O)(O)O[C@H]2[C@H]1O [Cyclic AMP]
competition with cGMP in binding of GST-cGB-PDE5 [1]: did not compete

O=c1ccn([C@@H]2O[C@@H]3COP(=O)(O)O[C@H]3[C@H]2O)c(=O)[nH]1 [cUMP]
competition with cGMP in binding of GST-cGB-PDE5 ([1]; 3H-cGMP 2 μM, 22° C., 1 hour): did not compete

CC1=C(CC(=O)NCc2ccccc2)c2cc(F)ccc2/C1=C\c1ccncc1 [Example 38, (Z)-5-Fluoro-2-Methyl-(4-Pyridylidene)-3-(N-Benzyl)Indenylacetamide Hydrochloride]
IC50 [3]: 3 µM | IC50 [4]: 6 µM | binding to the cGMP binding sites of GST-cGB-PDE5 / PDE5 [1]: does not bind to the cGMP-binding site of PDE5 | competitive (with cGMP) binding to PDE 5 [5]: does competitively (with cGMP) bind to PDE 5 | acute toxicity on a single-dose basis [6]: not acutely toxic | body weight gain ([6]; ip, 1000 mg/kg): reduced body weight gain | necropsy finding ([6]; ip, 1000 mg/kg): mesenteric adhesions seen in some animals | body weight gains ([6]; po, 2000 mg/kg): slightly reduced | signs of toxicity ([7]; 1000 mg/kg): no signs of toxicity | signs of drug-related effects ([7]; 1000 mg/kg/day): At no time in either dosing phase were any obvious signs of drug-related effects observed | signs of toxicity ([8]; 50 mg/kg/day): no observable signs of toxicity | treatment-related effects ([8]; 500 mg/kg/day): increase in absolute and relative liver weights in female rats | treatment-related effects ([8]; 2000 mg/kg/day): labored breathing and/or abnormal respiratory sounds, decreased weights gains and food consumption in male rats, and increased liver weights in female rats | hematology, blood chemistry, microscopic pathology ([8]; any dose level (50, 500, 2000 mg/kg/day)): No hematological or blood chemistry changes nor any microscopic pathology changes | macroscopic tissue changes at necropsy ([9]; 28 days): No macroscopic tissue changes | liver weights ([9]; 28 days, 2000 mg/kg/day): statistically significant increase | thyroid weights ([9]; 28 days, 2000 mg/kg/day): statistically significant increases | body weight changes, ophthalmoscopic examinations, hematological and blood chemistry values and urinalysis [9, 14]: unremarkable | clinical observations [9, 14]: no abnormal clinical observations | liver and thyroid weights at the lower doses ([9]; 28 days, 50 and 500 mg/kg/day): not statistically significant | histopathological evaluation of tissues ([9]; 28 days, generally limited to a small number of animals at 2000 mg/kg/day, one female at 500 mg/kg/day): traces of follicular cell hypertrophy, increased numbers of mitotic figures (suggestive of possible cell proliferation) in the thyroid gland and mild centrilobular hypertrophy in the liver | clinical biochemistry and hematology ([10]; 91 days): no changes in clinical biochemistry and hematology were evident | microscopic finding, follicular cells ([10]; 91 days, 500 mg/kg/day): follicular cell hypertrophy | microscopic finding, kidneys ([10]; 91 days, 200 and 500 mg/kg/day): increase in accumulation of hyalin droplets in the kidneys | microscopic finding, liver ([10]; 91 days, 200 and 500 mg/kg/day): slight hepatocellular hypertrophy | liver and thyroid/parathyroid weights ([10]; 91 days, males and females at 200 and 500 mg/kg/day): dose-related trend to increased liver and thyroid/parathyroid weights | toxicological effects overall ([10]; oral, 91 consecutive days, 50, 200 and 500 mg/kg/day): did not produce any major toxicological effects | tolerability ([11]; 91 days): well tolerated | feces observation ([11]; 91 days, 150 and 300 mg/kg/day): Orange discoloration of the feces | microscopic alterations of liver ([11]; 91 days, highest dose group): no microscopic alterations | body weights [11, 15]: Slightly lowered body weights | liver weights [11, 15]: increased liver weights | toxicological effects overall ([11]; oral, 91 consecutive days, 50, 150 and 300 mg/kg/day): no toxicological effects | route of elimination (suggested by feces colour) ([11]; oral, 91 days): most of Compound 38 was being eliminated via the feces | side effects [12]: no significant side effects at any dose | body weight regained, Dog #1 ([13]; Dog #1, 12 weeks of 800 mg BID): at least 13 lbs. | histopathological change, Dog #1 ([13]; Dog #1, 12 weeks of 800 mg BID): significant histopathological improvement | body weight, Dog #1 ([13]; Dog #1, Month 8 (start), after 12 weeks of treatment, 46 lbs at Month 3 (middle)): 60 lbs | small intestine histopathology after treatment, Dog #1 ([13]; Dog #1, after 12 weeks of treatment, FIGS. 2 and 4): closely mimics normal canine small intestinal tissue | blood protein levels, Dog #2 ([13]; Dog #2, after 7 weeks 400 mg BID): returned to normal | blood protein levels, Dog #3 ([13]; Dog #3, 400 mg BID): gradually returned to within normal limits | stool, Dog #4 ([13]; Dog #4, after 7 weeks 800 mg BID, owner report): normal size stool with no mucus | outcome, Dog #6 ([13]; after 7 weeks 800 mg BID, late stage abdominal neoplastic disease discovered post-mortem): Euthanized | clinical status, Dog #5 ([13]; chronic IBD, 7 weeks 800 mg BID without conventional IBD treatments): significantly improved and completely normal | clinical status, Dog #4 ([13]; chronic IBD, conventional therapy withdrawn, 7 weeks 800 mg BID): completely clinically normal with no signs of IBD | stools, Dog #7 ([13]; chronic IBD, tylosin stopped, after one week on drug, then withdrawn by owner): normal stools began to be formed | clinical status, Dog #2 ([13]; moderate IBD (plasmacytic enteritis), two weeks conventional therapy, then 7 weeks 400 mg BID alone): Clinically normal | clinical status, Dog #3 ([13]; protein-losing enteropathy with IBD, 7 weeks 400 mg BID with intermittent metronidazole, no prednisone): clinically normal | clinical status in first 30 days, Dog #6 ([13]; severe IBD, conventional treatment withdrawn, 800 mg BID, first 30 days, owner report): playful, active and clinically normal | clinical status, Dog #1 ([13]; severe lymphoplasmacytic enteritis, 6 weeks conventional therapy plus 800 mg BID, then 6 weeks 800 mg BID alone): became clinically normal

CSc1ccc(/C=C2/C(C)=C(CC(=O)O)c3cc(F)ccc32)cc1 [Sulindac sulfide, sulindac sulfide]
competition with cGMP in binding of GST-cGB-PDE5 ([1]; 3H-cGMP 2 μM, 22° C., 1 hour): None of the PDE5 inhibitors showed any competition with cGMP

CCCCOC1C2OP(=O)(O)OCC2OC1n1cnc2c(N)ncnc21 (stereo not shown) [2′-O-butyl-cAMP]
competition with cGMP in binding of GST-cGB-PDE5 ([1]; 3H-cGMP 2 μM, 22° C., 1 hour): did not compete

CCCCOC1C2OP(=O)(O)OCC2OC1n1cnc2c(=O)[nH]c(N)nc21 (stereo not shown) [2′-O-butyl-cGMP]
competition with cGMP in binding of GST-cGB-PDE5 ([1]; 3H-cGMP 2 μM, 22° C., 1 hour): did not compete

CCCOc1ccccc1-c1nc2nn[nH]c2c(=O)[nH]1 [zaprinast]
competition with cGMP in binding of GST-cGB-PDE5 ([1]; 3H-cGMP 2 μM, 22° C., 1 hour): None of the PDE5 inhibitors showed any competition with cGMP

CC1=C(CC(=O)O)c2cc(F)ccc2/C1=C\c1ccc(S(C)(=O)=O)cc1 [exisulind]
competition with cGMP in binding of GST-cGB-PDE5 ([1]; 3H-cGMP 2 μM, 22° C., 1 hour): None of the PDE5 inhibitors showed any competition with cGMP

Nc1nc2c(nc(Br)n2[C@@H]2O[C@@H]3COP(=O)(O)O[C@H]3[C@H]2O)c(=O)[nH]1 [Example 8-bromo-cGMP, 8-bromo-cGMP]
competition with cGMP binding at high concentration [1]: can partially compete

Nc1ccn([C@@H]2O[C@@H]3COP(=O)(O)O[C@H]3[C@H]2O)c(=O)n1 [cCMP]
competition with cGMP in binding of GST-cGB-PDE5 ([1]; 3H-cGMP 2 μM, 22° C., 1 hour): did not compete
